Measured values taken from patent US20260166021A1, “POLYMORPHIC FORMS OF A SOLUBLE EPOXIDE HYDROLASE INHIBITOR AND FORMULATIONS THEREOF” (EicOsis, LLC, priority 2022, published 2026).
Marks after values point to notes of the source that are not given here.

Assays:
Format in all cases: physicochemical
[1] = Equilibrium-solubility screening in solvents and excipients; settings: for solubility thermodynamic at 24 h: thermodynamic from solid
Procedure: For these analyses, Form D or Form C was mixed with 0.5 or 1.0 mL of solvents and equilibrated for approximately 24 hours. The mixture was filtered through 0.45 μm centrifuge filters.
As expected, the compound was not easily ionized at physiologically relevant pH. […] In addition, these excipients included surfactants, co-solvents, and lipids which are amenable for use in self-emulsifying drug delivery systems (SEDDS). The XRD pattern of the starting material was maintained for each sample after equilibrium.

[2] = Chemical stability in pH media (HPLC impurities)
Procedure: For the pH stability analyses, approximately 2-3 mg Form D was incubated in 1.0 mL of aqueous pH 1.0 (0.1 M HCl), pH 6.8 (water adjusted using 0.1 M NaOH and 0.1 M HCl), and pH 10.0 solutions.

[3] = Excipient stability analyses (HPLC impurities)
Procedure: For the excipient stability analyses, approximately 10-20 mg Form D was incubated in PEG400, propylene glycol, D-a-Tocopherol polyethylene glycol 1000 succinate (Vitamin E TPGS), Gelucire® 44/14, hydrogenated castor oil, glyceryl caprylate/caprate(Capmul® MCM), ethoxylated solubilizers (Kolliphor® HS 15, Kolliphor® EL), nonionic surfactant (Labrasol), and diethylene glycol monoethyl ether (Transcutol® HP).

[4] = 50° C., Castor Oil, hydrogenated
[5] = Room Temperature, Capmul MCM, EP
[6] = Room Temperature, Capmul MCM, NF
[7] = Room Temperature, Castor Oil, hydrogenated*
[8] = Room Temperature, Gelucire 44/14
[9] = Room Temperature, Kolliphor HS-15
[10] = Room Temperature, Propylene glycol
[11] = Room Temperature, Vitamin E TPGS

CC[C@H](C)C(=O)N1CCC(NC(=O)Nc2ccc(OC(F)(F)F)c(F)c2)CC1 [Form D, (S)-1-(3-fluoro-4-(trifluoromethoxy)phenyl)-3-(1-(2-methylbutanoyl)piperidin-4-yl)urea]
40.6** mg/mL: Equilibrium Solubility ([1]; Vitamin E)
Form C: XRD Pattern At Equilibrium ([1]; Tween 80, 1x) | XRD Pattern At Equilibrium ([1]; Tween 80, 5x) | XRD Pattern At Equilibrium ([1]; Tween 80, 10x) | XRD Pattern At Equilibrium ([1]; Tween 80, 100x)
7.9 mg/mL: Equilibrium Solubility ([1]; Sulfobutylether)
38.1 mg/mL: Equilibrium Solubility ([1]; Transcutol HP)
Form D: XRD Pattern At Equilibrium ([1]; Soybean Oil) | XRD Pattern At Equilibrium ([1]; Sulfobutylether) | XRD Pattern At Equilibrium ([1]; Transcutol HP) | XRD Pattern At Equilibrium ([1]; Triacetin) | XRD Pattern At Equilibrium ([1]; Vitamin E) | XRD Pattern At Equilibrium ([1]; pH 7.4)
No impurities were detectable: impurities after incubation in pH media ([2]; aqueous pH 1.0, pH 6.8, pH 10.0, 4 or 7 days, room temperature or 50° C.)
6.4 mg/mL: Equilibrium Solubility ([1]; Triacetin)
No impurities were observed: impurities after incubation in excipients ([3]; PEG400, propylene glycol, Vitamin E TPGS, Gelucire 44/14, hydrogenated castor oil, Capmul MCM, Kolliphor HS 15, Kolliphor EL, Labrasol, Transcutol HP, 4 or 7 days, room temperature or 50° C., HPLC)
None: Impurity, % (Day 1) ([3]; 50° C., Capmul MCM, EP) | Impurity, % (Day 3) ([3]; 50° C., Capmul MCM, EP) | Impurity, % (Day 1) ([3]; 50° C., Capmul MCM, NF) | Impurity, % (Day 3) ([3]; 50° C., Capmul MCM, NF) | Impurity, % (Day 1) [3, 4] | Impurity, % (Day 3) [3, 4] | Impurity, % (Day 1) ([3]; 50° C., Gelucire 44/14) | Impurity, % (Day 3) ([3]; 50° C., Gelucire 44/14) | Impurity, % (Day 1) ([3]; 50° C., Kolliphor EL) | Impurity, % (Day 3) ([3]; 50° C., Kolliphor EL) | Impurity, % (Day 1) ([3]; 50° C., Kolliphor HS-15) | Impurity, % (Day 3) ([3]; 50° C., Kolliphor HS-15) | Impurity, % (Day 1) ([3]; 50° C., Labrasol) | Impurity, % (Day 3) ([3]; 50° C., Labrasol) | Impurity, % (Day 1) ([3]; 50° C., PEG 400) | Impurity, % (Day 1) ([3]; 50° C., Propylene glycol) | Impurity, % (Day 3) ([3]; 50° C., Propylene glycol) | Impurity, % (Day 1) ([3]; 50° C., Transcutol) | Impurity, % (Day 3) ([3]; 50° C., Transcutol) | Impurity, % (Day 1) ([3]; 50° C., Vitamin E TPGS) | Impurity, % (Day 3) ([3]; 50° C., Vitamin E TPGS) | Impurity, % (Day 1) [3, 5] | Impurity, % (Day 3) [3, 5] | Impurity, % (Day 1) [3, 6] | Impurity, % (Day 3) [3, 6] | Impurity, % (Day 1) [3, 7] | Impurity, % (Day 3) [3, 7] | Impurity, % (Day 1) [3, 8] | Impurity, % (Day 3) [3, 8] | Impurity, % (Day 1) ([3]; Room Temperature, Kolliphor EL) | Impurity, % (Day 3) ([3]; Room Temperature, Kolliphor EL) | Impurity, % (Day 1) [3, 9] | Impurity, % (Day 3) [3, 9] | Impurity, % (Day 1) ([3]; Room Temperature, Labrasol) | Impurity, % (Day 3) ([3]; Room Temperature, Labrasol) | Impurity, % (Day 1) ([3]; Room Temperature, PEG 400) | Impurity, % (Day 1) [3, 10] | Impurity, % (Day 3) [3, 10] | Impurity, % (Day 1) ([3]; Room Temperature, Transcutol) | Impurity, % (Day 3) ([3]; Room Temperature, Transcutol) | Impurity, % (Day 1) [3, 11] | Impurity, % (Day 3) [3, 11]
Forms C & D: XRD Pattern At Equilibrium ([1]; pH 1.0 HCl) | XRD Pattern At Equilibrium ([1]; pH 10.0 NaOH)
None Detected: Impurity, % (Day 4) ([2]; 50° C., pH 1.0) | Impurity, % (Day 7) ([2]; 50° C., pH 1.0) | Impurity, % (Day 4) ([2]; 50° C., pH 6.8) | Impurity, % (Day 7) ([2]; 50° C., pH 6.8) | Impurity, % (Day 4) ([2]; 50° C., pH 10.0) | Impurity, % (Day 7) ([2]; 50° C., pH 10.0) | Impurity, % (Day 4) ([2]; Room Temperature, pH 1.0) | Impurity, % (Day 7) ([2]; Room Temperature, pH 1.0) | Impurity, % (Day 4) ([2]; Room Temperature, pH 6.8) | Impurity, % (Day 7) ([2]; Room Temperature, pH 6.8) | Impurity, % (Day 4) ([2]; Room Temperature, pH 10.0) | Impurity, % (Day 7) ([2]; Room Temperature, pH 10.0)
< 100 µg/mL: solubility thermodynamic at 24 h ([1]; Soybean Oil, oil or lipid) | solubility thermodynamic at 24 h ([1]; Tween 80, 1x, aqueous with cosolvent or surfactant or cyclodextrin) | solubility thermodynamic at 24 h ([1]; Tween 80, 5x, aqueous with cosolvent or surfactant or cyclodextrin) | solubility thermodynamic at 24 h ([1]; Tween 80, 10x, aqueous with cosolvent or surfactant or cyclodextrin) | solubility thermodynamic at 24 h ([1]; Tween 80, 100x, aqueous with cosolvent or surfactant or cyclodextrin) | solubility thermodynamic at 24 h ([1]; pH 1.0 HCl, pH 1, simulated gastric fluid) | solubility thermodynamic at 24 h ([1]; pH 7.4 medium (buffer not named), pH 7.4, aqueous buffer, pH 7.4)
